# Results published in patent US9844575B2, “Pharmaceutical composition and functional food comprising natural extracts for preventing or treating diabetic complications or angiodema” (KOREA INSTITUTE OF ORIENTAL MEDICINE, priority 2013, dated 2017).
# Where a name gives a salt, the structure may show the parent alone.
# Columns and labels:
# [1] = tested on: advanced glycation endproducts (AGE); experiment: Inhibitory effect against formation of advanced glycation endproducts (BSA + fructose/glucose, 7 days, fluorescence); type: biochemical
# Protocol: Experiments were performed to examine the inhibitory effects of each of the compositions prepared in Example 1 and Example 2 against the formation of advanced glycation endproducts.
# Bovine serum albumin (BSA), a protein source, was prepared by mixing into a phosphate buffer solution. As a sugar source, a mixed solution between 0.2 M fructose and 0.2 M glucose was used. Each of the compositions prepared in Example 1 and Example 2, and aminoguanidine (positive control) were respectively added into a mixed solution between BSA and a sugar, and cultured for 7 days. After culturing, the content of the resulting advanced glycation endproducts was analyzed. The amount of the advanced glycation endproducts was calculated based on the Equation 1 below using a Microplate reader (Excitation; 350 nm, Emission; 450 nm) (Table 1). Inhibitory effect of AGE (%)={100−(fluorescence intensity of a sample)−(fluorescence intensity of a blank sample)/(fluorescence intensity of a control)−(fluorescence intensity of a blank control)}×100 [Equation 1]
# [2] = tested on: vascular endothelial growth factor (VEGF); experiment: Immunohistochemical staining: formation of VEGF in retina of db/db mice; type: in vivo; details: oral once daily 12 weeks; COPH 25 and 50 mg/kg; MET 350 mg/kg; COPH 50 + MET 350 mg/kg
# Description: VEGF induces neovascularization and increases permeability of blood vessels. Additionally, VEGF also induces the formation of substrate-degradative proteins.
"IC50 ([1]; AGE formation, BSA + 0.2 M fructose/0.2 M glucose, 7 days)",Compound,Inhibitory effect (%) ([1]; Conc. 55.5 μg/mL),Inhibitory effect (%) ([1]; Conc. 74.8 μg/mL),Inhibitory effect (%) ([1]; Conc. 92.5 μg/mL),expression of VEGF within retinal tissue (FIG. 9) [2]
76.47 ± 4.81 µg/mL,N=C(N)NN [Aminoguanidine HCl],43.92 ± 0.37%,50.86 ± 2.17%,54.91 ± 0.75%,–
–,"CN(C)C(=N)N=C(N)N [MET, metformin]",–,–,–,significantly inhibited the expression of VEGF
